{"source": "patent US12394502B2", "about": "“Method for predicting HLA-binding peptides using protein structural features” (The General Hospital Corporation, priority 2019, dated 2025)", "origin": "cited, not measured here", "key": {"[1]": {"test_system": "advanced hormone refractory prostate cancer patients", "details": "personalized vaccination alone or combined with a low dose of estramustine"}, "[2]": {"test_system": "Stage IV Melanoma Patients", "details": "temozolomide combined with peptide vaccination"}, "[3]": {"details": "more than 25 clinical trials"}, "[4]": {"test_system": "ovarian carcinoma patients"}}, "data": [{"compound": "C[C@]12CC[C@@H]3c4ccc(OC(=O)N(CCCl)CCCl)cc4CC[C@H]3[C@@H]1CC[C@@H]2O", "note": "[estramustine]", "values": [{"measurement": "patients with >50% decrease in serum prostate specific antigen (PSA)", "setting": "[1]", "result": 54, "unit": "%"}]}, {"compound": "Cn1nnc2c(C(N)=O)ncn2c1=O", "note": "[temozolomide]", "values": [{"measurement": "toxicity", "setting": "[2]", "result": "low toxicity"}]}, {"compound": "Polyinosinic-Polycytidylic Acid-poly-L-lysine Carboxymethylcellulose [poly-ICLC]", "values": [{"measurement": "safety", "setting": "healthy human volunteers; human volunteer study", "result": "safe"}, {"measurement": "differential expression of genes versus placebo", "setting": "healthy human volunteers; one single s.c. administration, 8 subjects versus 4 placebo, whole blood", "result": "up to 212 genes"}, {"measurement": "toxicity profile", "setting": "[3]", "result": "relatively benign toxicity profile"}, {"measurement": "generation of NY-ESO-1-specific CD4+ and CD8+ T cell and antibody responses", "setting": "[4]; 1.4 mg poly-ICLC and Montanide added to OLP, compared to OLP alone or OLP and Montanide, subcutaneous", "result": "markedly enhanced"}, {"measurement": "patients showing induction of CD4+ and CD8+ T cell, as well as antibody responses to the peptide", "setting": "[4]; poly-ICLC in combination with NY-ESO-1 peptide vaccine (in addition to Montanide)", "result": "> 90", "unit": "%"}]}]}
